Test results from patent US9409915B2, “Substituted aza-bicyclic imidazole derivatives useful as TRPM8 receptor modulators” (Janssen Pharmaceutica NV, priority 2010, dated 2016).
pIC50: −log10 of the molar value. Structures can show the parent of a compound that is named as a salt.

Biological target: canine TRPM8 (Canis lupus familiaris, UniProt Q1A7N1)
Assay: In vitro canine TRPM8 functional assay (Ca2+-sensitive fluorescent dye, icilin activation)
Type: cell-based
Settings: HEK293 cells stably expressing canine TRPM8, icilin-induced Ca2+ response; for pIC50: eight-point concentration-response
Method: The functional activity of representative compounds of the formula (I) of the present invention was quantified by measuring changes in intracellular calcium concentration using a Ca^2+-sensitive fluorescent dye. The changes in fluorescent signal were monitored by a fluorescence plate reader, either a FLIPR™ (Molecular Devices) or FDSS (Hamamatsu).
HEK293 cells stably expressing canine TRPM8 were routinely grown as monolayers in Dulbecco's minimum essential medium supplemented with 10% FBS, 2 mM L-glutamine, 100 units/mL penicillin, 100 ug/mL streptomycin and 400 μg/mL G418. Cells were maintained in 5% CO2 at 37° C. At 24 hr prior to assay, cells were seeded in black wall, clear-base poly-D-lysine coated 384-well plates (BD Biosciences, NJ, USA) at a density of 5,000 cells per well in culture medium and grown overnight in 5% CO2 at 37° C. On assay day, growth media was removed, and cells were loaded with Calcium 3 Dye (Molecular Devices) for 35 min at 37° C., under 5% CO2 and then incubated for 25 min at room temperature and atmosphere. Subsequently, cells were tested for agonist-induced increases in intracellular Ca^2+ levels using FLIPR™ or FDSS. Cells were treated with compounds of the formula (I) at varying concentrations and intracellular Ca^2+ was measured for 5 min prior to the addition of icilin to each well to achieve a final concentration that produces an approximately 80% maximal response.
Maximal fluorescence intensity (FI) achieved upon addition of icilin was exported from the FLIPR™ or FDSS software and further analyzed using GraphPad Prism 3.02 (Graph Pad Software Inc., CA, U.S.A.). Basal FI was subtracted prior to normalizing data to percent of maximal response. Curves were generated using the average of quadruplicate wells for each data point using nonlinear regression of either sigmoidal dose response or sigmoidal dose response (variable slope). Finally, the EC50 and IC50 values were calculated with the best-fit curve determined by GraphPad Prism

Chain of canine TRPM8 (Q1A7N1 1-1104): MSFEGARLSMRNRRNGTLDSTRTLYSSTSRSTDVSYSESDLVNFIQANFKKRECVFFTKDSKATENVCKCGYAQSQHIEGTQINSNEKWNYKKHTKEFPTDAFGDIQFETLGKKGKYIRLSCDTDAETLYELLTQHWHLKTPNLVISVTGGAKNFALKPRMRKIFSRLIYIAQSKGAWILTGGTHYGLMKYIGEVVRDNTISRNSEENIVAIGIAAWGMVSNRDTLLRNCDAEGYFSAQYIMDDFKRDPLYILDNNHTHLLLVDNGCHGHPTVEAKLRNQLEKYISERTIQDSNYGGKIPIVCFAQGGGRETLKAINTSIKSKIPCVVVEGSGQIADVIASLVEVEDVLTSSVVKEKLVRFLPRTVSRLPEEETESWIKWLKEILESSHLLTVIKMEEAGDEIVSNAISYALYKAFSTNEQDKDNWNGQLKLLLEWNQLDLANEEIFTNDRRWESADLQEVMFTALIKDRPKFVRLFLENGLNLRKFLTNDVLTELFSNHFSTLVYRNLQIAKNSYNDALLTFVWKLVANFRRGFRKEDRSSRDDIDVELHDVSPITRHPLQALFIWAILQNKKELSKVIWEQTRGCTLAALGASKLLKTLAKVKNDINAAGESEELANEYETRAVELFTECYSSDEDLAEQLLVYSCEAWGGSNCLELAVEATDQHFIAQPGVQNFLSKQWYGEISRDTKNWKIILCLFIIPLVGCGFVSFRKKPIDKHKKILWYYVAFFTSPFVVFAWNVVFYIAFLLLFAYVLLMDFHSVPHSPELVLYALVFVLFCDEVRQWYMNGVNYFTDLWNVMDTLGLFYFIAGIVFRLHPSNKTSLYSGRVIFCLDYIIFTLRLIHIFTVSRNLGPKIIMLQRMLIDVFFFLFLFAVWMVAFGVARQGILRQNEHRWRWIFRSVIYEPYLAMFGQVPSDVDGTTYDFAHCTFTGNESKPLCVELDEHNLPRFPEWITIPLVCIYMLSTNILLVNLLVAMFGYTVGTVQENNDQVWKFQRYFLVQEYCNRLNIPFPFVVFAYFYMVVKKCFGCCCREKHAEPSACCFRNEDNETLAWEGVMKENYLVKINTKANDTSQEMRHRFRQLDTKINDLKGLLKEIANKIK

Row | SMILES | inhibition at 0.2 µM (0.2 μM compound) | pIC50 | inhibition at 0.2 µM (HEK293, 0.2 μM compound)
1 | COc1cc(-c2ccccc2C(F)(F)F)nc2nc(-c3onc(C(C)(C)C)c3C#N)[nH]c12 [Compound 70, 3-tert-Butyl-5-[7-methoxy-5-(2-trifluoromethyl-phenyl)-1H-imidazo[4,5-b]pyridin-2-yl]-isoxazole-4-carbonitrile methanesulfonic acid salt] | 36% |  | 
2 | Cn1nc(C(C)(C)C)c(Cl)c1-c1nc2cc(-c3ccccc3C(F)(F)F)nc(Cl)c2[nH]1 [Compound 71, 2-(5-tert-Butyl-4-chloro-2-methyl-2H-pyrazol-3-yl)-4-chloro-6-(2-trifluoromethyl-phenyl)-3H-imidazo[4,5-c]pyridine Hydrochloride] | 100% | 8.06 | 
3 | Cn1nc2c(c1-c1nc3c(Cl)nc(-c4ccccc4C(F)(F)F)cc3[nH]1)CCC21CCCCC1 [Compound 72, 3′-{4-Chloro-6-[2-(trifluoromethyl)phenyl]-1H-imidazo[4,5-c]pyridin-2-yl}-2′-methyl-4′,5′-dihydro-2′H-spiro[cyclohexane-1,6′-cyclopenta[c]pyrazole] hydrochloride] | 95% | 7.20 | 
4 | CC(C)(C)c1cc(-c2nc3cc(-c4ccccc4C(F)(F)F)nc(Cl)c3[nH]2)on1 [Compound 73, 2-(3-tert-Butyl-isoxazol-5-yl)-4-chloro-6-(2-trifluoromethyl-phenyl)-3H-imidazo[4,5-c]pyridine hydrochloride] | 100% | 7.55 | 
5 | Cn1nc(C(C)(C)C)cc1-c1nc2cc(-c3ccccc3C(F)(F)F)nc(Cl)c2[nH]1 [Compound 74, 2-(5-tert-Butyl-2-methyl-2H-pyrazol-3-yl)-4-chloro-6-(2-trifluoromethyl-phenyl)-3H-imidazo[4,5-c]pyridine hydrochloride] | 93% | 7.02 | 
6 | Cn1nc(C(C)(C)C)c(C#N)c1-c1nc2cc(-c3ccccc3C(F)(F)F)nc(Cl)c2[nH]1 [Compound 75, 3-tert-Butyl-5-[4-chloro-6-(2-trifluoromethyl-phenyl)-3H-imidazo[4,5-c]pyridin-2-yl]-1-methyl-1H-pyrazole-4-carbonitrile Hydrochloride] | 100% | 7.62 | 
7 | COCCOc1cc(-c2ccccc2C(F)(F)F)nc2nc(-c3c(Cl)c(C(C)(C)C)nn3C)[nH]c12 [Compound 76, 2-(5-tert-Butyl-4-chloro-2-methyl-2H-pyrazol-3-yl)-7-(2-methoxy-ethoxy)-5-(2-trifluoromethyl-phenyl)-1H-imidazo[4,5-b]pyridine methanesulfonic acid salt] |  | 8.24 | 98%
8 | COc1nc(-c2ccccc2C(F)(F)F)cc2nc(-c3c(F)c(C(C)(C)C)nn3C)[nH]c12 [Compound 78, 2-(5-tert-Butyl-4-fluoro-2-methyl-2H-pyrazol-3-yl)-4-methoxy-6-(2-trifluoromethyl-phenyl)-3H-imidazo[4,5-c]pyridine methanesulfonic acid salt] | 100% | 7.80 | 
9 | COc1c(C(C)(C)C)nn(C)c1-c1nc2cc(-c3ccccc3C(F)(F)F)nc(OC)c2[nH]1 [Compound 79, 2-(5-tert-Butyl-4-methoxy-2-methyl-2H-pyrazol-3-yl)-4-methoxy-6-(2-trifluoromethyl-phenyl)-3H-imidazo[4,5-c]pyridine methanesulfonic acid salt] | 101% | 7.70 | 
10 | COc1nc(-c2ccccc2C(F)(F)F)cc2nc(-c3cc(C(C)(C)C)nn3C)[nH]c12 [Compound 80, 2-(5-tert-Butyl-2-methyl-2H-pyrazol-3-yl)-4-methoxy-6-(2-trifluoromethyl-phenyl)-3H-imidazo[4,5-c]pyridine methanesulfonic acid salt] | 100% | 7.38 | 
11 | COc1cc(-c2ccccc2C(F)(F)F)nc2nc(-c3cc(C(C)(C)C)nn3C)[nH]c12 [Compound 81, 2-(5-tert-Butyl-2-methyl-2H-pyrazol-3-yl)-7-methoxy-5-(2-trifluoromethyl-phenyl)-1H-imidazo[4,5-b]pyridine hydrochloride] | 67% | 6.92 | 
12 | Cn1nc(C(C)(C)C)c(C#N)c1-c1nc2cc(-c3ccccc3Cl)nc(OCCO)c2[nH]1 [Compound 83, 3-tert-Butyl-5-[6-(2-chloro-phenyl)-4-(2-hydroxy-ethoxy)-3H-imidazo[4,5-c]pyridin-2-yl]-1-methyl-1H-pyrazole-4-carbonitrile] | 99% | 8.74 | 
13 | Cn1nc(C(C)(C)C)c(C#N)c1-c1nc2cc(-c3ccccc3C(F)(F)F)nc(OCCO)c2[nH]1 [Compound 84, 3-tert-Butyl-5-[4-(2-hydroxy-ethoxy)-6-(2-trifluoromethyl-phenyl)-3H-imidazo[4,5-c]pyridin-2-yl]-1-methyl-1H-pyrazole-4-carbonitrile] | 100% | 8.72 | 
14 | Cn1nc(C(C)(C)C)c(C#N)c1-c1nc2cc(-c3ccccc3Cl)nc(OCC(=O)O)c2[nH]1 [Compound 85, [2-(5-tert-Butyl-4-cyano-2-methyl-2H-pyrazol-3-yl)-6-(2-chloro-phenyl)-3H-imidazo[4,5-c]pyridin-4-yloxy]-acetic acid] | 32% |  | 
15 | Cn1nc(C(C)(C)C)c(C#N)c1-c1nc2cc(-c3ccccc3C(F)(F)F)nc(OCC(=O)O)c2[nH]1 [Compound 86, [2-(5-tert-Butyl-4-cyano-2-methyl-2H-pyrazol-3-yl)-6-(2-trifluoromethyl-phenyl)-3H-imidazo[4,5-c]pyridin-4-yloxy]-acetic acid] | 49% |  | 
16 | Cn1nc(C(C)(C)C)c(Cl)c1-c1nc2cc(-c3ccccc3Cl)nc(OCC(=O)O)c2[nH]1 [Compound 87, [2-(5-tert-Butyl-4-chloro-2-methyl-2H-pyrazol-3-yl)-6-(2-chloro-phenyl)-3H-imidazo[4,5-c]pyridin-4-yloxy]-acetic acid] |  | 6.88 | 72%
17 | Cn1nc(C(C)(C)C)c(Cl)c1-c1nc2cc(-c3ccccc3C(F)(F)F)nc(OCC(=O)O)c2[nH]1 [Compound 88, [2-(5-tert-Butyl-4-chloro-2-methyl-2H-pyrazol-3-yl)-6-(2-trifluoromethyl-phenyl)-3H-imidazo[4,5-c]pyridin-4-yloxy]-acetic acid] | 36% |  | 
18 | Cn1nc(C(C)(C)C)c(Cl)c1-c1nc2cc(-c3ccccc3Cl)nc(OCC(F)(F)F)c2[nH]1 [Compound 89, 2-(5-tert-Butyl-4-chloro-2-methyl-2H-pyrazol-3-yl)-6-(2-chlorophenyl)-4-(2,2,2-trifluoro-ethoxy)-3H-imidazo[4,5-c]pyridine sodium salt] | 100% | 9.28 | 
19 | Cn1nc(C(C)(C)C)c(Cl)c1-c1nc2cc(-c3ccccc3OC(F)(F)F)nc(OCC(F)(F)F)c2[nH]1 [Compound 90, 2-(5-tert-Butyl-4-chloro-2-methyl-2H-pyrazol-3-yl)-4-(2,2,2-trifluoro-ethoxy)-6-(2-trifluoromethoxyphenyl)-3H-imidazo[4,5-c]pyridine sodium salt] | 99% | 9.14 | 
20 | Cn1nc(C(C)(C)C)c(Cl)c1-c1nc2cc(-c3ccccc3F)nc(OCC(F)(F)F)c2[nH]1 [Compound 91, 2-(5-tert-Butyl-4-chloro-2-methyl-2H-pyrazol-3-yl)-6-(2-fluorophenyl)-4-(2,2,2-trifluoroethoxy)-3H-imidazo[4,5-c]pyridine sodium salt] | 99% | 8.42 | 
21 | CC(C)Oc1nc(-c2ccccc2F)cc2nc(-c3c(Cl)c(C(C)(C)C)nn3C)[nH]c12 [Compound 92, 2-(5-tert-Butyl-4-chloro-2-methyl-2H-pyrazol-3-yl)-6-(2-fluorophenyl)-4-isopropoxy-3H-imidazo[4,5-c]pyridine sodium salt] | 99% | 8.55 | 
22 | CC(C)Oc1nc(-c2ccccc2OC(F)(F)F)cc2nc(-c3c(Cl)c(C(C)(C)C)nn3C)[nH]c12 [Compound 93, 2-(5-tert-Butyl-4-chloro-2-methyl-2H-pyrazol-3-yl)-4-isopropoxy-6-(2-trifluoromethoxyphenyl)-3H-imidazo[4,5-c]pyridine sodium salt] | 99% | 8.92 | 
23 | Cn1nc(C(C)(C)C)c(Cl)c1-c1nc2nc(-c3ccccc3OC(F)(F)F)cnc2[nH]1 [Compound 94, 2-(5-tert-Butyl-4-chloro-2-methyl-2H-pyrazol-3-yl)-5-(2-trifluoromethoxy-phenyl)-1H-imidazo[4,5-b]pyrazine] | 99% | 7.65 | 
24 | Cn1nc(C(C)(C)C)c(Cl)c1-c1nc2nc(-c3ccccc3C(F)(F)F)cnc2[nH]1 [Compound 95, 2-(5-tert-butyl-4-chloro-2-methyl-2H-pyrazol-3-yl)-6-(2-trifluoromethyl-phenyl)-1H-imidazo[4,5-b]pyrazine] | 100% | 7.57 | 
